Reference: patent US7074789B2, “Kinase inhibitors” (Amgen Inc., priority 1999, dated 2006)
pIC50: −log10 of the molar value.

Key:
Assay type in all cases: biochemical
Lck = target: T1, Lck (Homo sapiens, UniProt P06239); experiment: Kinase inhibition assay (33P transfer), Lck; details: Table 3; read-out: Lck-1
T1 construct: Kinases are expressed as either kinase domains or full length constructs; made in house
In short: (§1)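 Recombinant kinase-domain or full-length fusion proteins (GST or His tag) served as enzyme. Substrate poly(Glu,Tyr) 4:1 or poly(Arg,Ser) 3:1 was bound to the plate; transferred 33P was read by liquid scintillation following acid washing.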

Lyn = target: T2, Lyn (Homo sapiens, UniProt P07948); experiment: Kinase inhibition assay (33P transfer), Lyn; details: Table 6, Lyn-1 kinase inhibition class
T2 construct: Kinases are expressed as either kinase domains or full length constructs; made in house
In short: (§2)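 Steps: coat wells with poly(Glu,Tyr) 4:1 or poly(Arg,Ser) 3:1; add purified kinase, [33P]ATP and inhibitor; incubate; wash with 0.5% phosphoric acid; add liquid scintillant; count. IC50 corresponds to half-maximal reduction of bound 33P.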

Src = target: T3, Src (Homo sapiens, UniProt P12931); experiment: Kinase inhibition assay (33P transfer), Src; details: Table 6, Src-1 kinase inhibition class
T3 construct: Kinases are expressed as either kinase domains or full length constructs; made in house
In short: as §2

Itk = target: T4, Itk (Homo sapiens, UniProt Q08881); experiment: Kinase inhibition assay (33P transfer), Itk; details: Table 3; read-out: Itk-1
T4 construct: Kinases are expressed as either kinase domains or full length constructs; made in house
T4 sequence (Q08881 1-620): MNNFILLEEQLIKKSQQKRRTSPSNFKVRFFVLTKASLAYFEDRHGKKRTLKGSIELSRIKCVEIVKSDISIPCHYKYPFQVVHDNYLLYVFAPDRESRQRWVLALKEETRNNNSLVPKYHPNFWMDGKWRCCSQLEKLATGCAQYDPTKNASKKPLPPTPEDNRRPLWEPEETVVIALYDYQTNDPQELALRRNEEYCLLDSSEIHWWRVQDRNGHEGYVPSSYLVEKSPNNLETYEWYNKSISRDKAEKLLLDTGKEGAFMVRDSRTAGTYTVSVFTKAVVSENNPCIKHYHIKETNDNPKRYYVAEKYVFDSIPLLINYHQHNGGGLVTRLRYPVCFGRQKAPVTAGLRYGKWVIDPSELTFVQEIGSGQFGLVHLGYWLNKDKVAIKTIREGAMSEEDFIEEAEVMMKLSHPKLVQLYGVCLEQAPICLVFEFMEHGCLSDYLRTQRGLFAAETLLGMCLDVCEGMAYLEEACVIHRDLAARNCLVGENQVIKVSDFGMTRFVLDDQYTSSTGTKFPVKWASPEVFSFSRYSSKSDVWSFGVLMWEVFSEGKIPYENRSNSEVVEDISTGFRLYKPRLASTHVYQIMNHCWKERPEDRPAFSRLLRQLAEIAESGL
In short: as §2

EGFR = target: T5, EGFR (Homo sapiens, UniProt P00533); experiment: Kinase inhibition assay (33P transfer), EGFR; details: Table 2, kinase inhibition class; read-out: EGFR-1
T5 construct: Kinases are expressed as either kinase domains or full length constructs; made in house
In short: as §2

Kdr = target: T6, Kdr (Homo sapiens, UniProt P35968); experiment: Kinase inhibition assay (33P transfer), Kdr; details: Table 3; read-out: KDR-1
T6 construct: Kinases are expressed as either kinase domains or full length constructs; made in house
In short: as §1

Tek = target: T7, Tek (Homo sapiens, UniProt Q02763); experiment: Kinase inhibition assay (33P transfer), Tek; details: read-out: Tek-1
T7 construct: Kinases are expressed as either kinase domains or full length constructs; made in house
In short: as §2

c-Met = target: T8, c-Met (Homo sapiens, UniProt P08581); experiment: Kinase inhibition assay (33P transfer), c-Met; details: Table 2, kinase inhibition class; read-out: Met-1
T8 construct: Kinases are expressed as either kinase domains or full length constructs; made in house
In short: as §2

IGFR-1 = target: T9, IGFR-1 (Homo sapiens, UniProt P08069); experiment: Kinase inhibition assay (33P transfer), IGFR-1; details: Table 2, kinase inhibition class
T9 construct: Kinases are expressed as either kinase domains or full length constructs; made in house

PDGFRB = target: T10, PDGFRB (Homo sapiens, UniProt P09619); experiment: Kinase inhibition assay (33P transfer), PDGFRB; details: read-out: PDGFRB-1
T10 construct: Kinases are expressed as either kinase domains or full length constructs; made in house

ErbB4 = target: T11, ErbB4 (Homo sapiens, UniProt Q15303); experiment: Kinase inhibition assay (33P transfer), ErbB4; details: read-out: ErbB4-1
T11 construct: Kinases are expressed as either kinase domains or full length constructs; made in house

Ret-1 = target: T12, Ret-1 (Homo sapiens, UniProt P07949); experiment: Kinase inhibition assay (33P transfer), Ret; details: Table 6, Ret-1 kinase inhibition class
T12 construct: Kinases are expressed as either kinase domains or full length constructs; made in house

FGFR1 = target: T13, FGFR1 (Homo sapiens, UniProt P11362); experiment: Kinase inhibition assay (33P transfer), FGFR1; details: read-out: FGFR1-1
T13 construct: Kinases are expressed as either kinase domains or full length constructs; made in house
T13 sequence (P11362 22-822, species assumed): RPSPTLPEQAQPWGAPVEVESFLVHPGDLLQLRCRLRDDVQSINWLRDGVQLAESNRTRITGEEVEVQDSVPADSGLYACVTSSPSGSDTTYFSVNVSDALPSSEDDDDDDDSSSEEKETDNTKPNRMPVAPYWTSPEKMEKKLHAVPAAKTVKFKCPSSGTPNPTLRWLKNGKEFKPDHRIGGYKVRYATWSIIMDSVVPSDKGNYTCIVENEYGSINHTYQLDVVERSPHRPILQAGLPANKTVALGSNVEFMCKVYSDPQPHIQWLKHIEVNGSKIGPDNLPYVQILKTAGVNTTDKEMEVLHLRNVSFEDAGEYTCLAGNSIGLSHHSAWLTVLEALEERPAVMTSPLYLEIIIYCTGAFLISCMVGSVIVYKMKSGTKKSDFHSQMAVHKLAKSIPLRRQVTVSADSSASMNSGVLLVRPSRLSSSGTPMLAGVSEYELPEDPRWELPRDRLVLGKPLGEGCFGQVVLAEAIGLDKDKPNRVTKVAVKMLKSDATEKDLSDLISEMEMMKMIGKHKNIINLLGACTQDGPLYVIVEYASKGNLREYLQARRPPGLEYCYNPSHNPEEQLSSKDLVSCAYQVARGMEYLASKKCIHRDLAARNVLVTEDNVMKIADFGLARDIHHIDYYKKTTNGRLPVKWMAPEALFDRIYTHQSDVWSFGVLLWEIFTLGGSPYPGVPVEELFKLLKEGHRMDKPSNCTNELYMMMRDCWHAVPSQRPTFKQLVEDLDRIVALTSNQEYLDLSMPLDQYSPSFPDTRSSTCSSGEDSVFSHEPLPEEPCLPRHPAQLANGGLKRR

T6 sequence (P35968 20-1356, species assumed): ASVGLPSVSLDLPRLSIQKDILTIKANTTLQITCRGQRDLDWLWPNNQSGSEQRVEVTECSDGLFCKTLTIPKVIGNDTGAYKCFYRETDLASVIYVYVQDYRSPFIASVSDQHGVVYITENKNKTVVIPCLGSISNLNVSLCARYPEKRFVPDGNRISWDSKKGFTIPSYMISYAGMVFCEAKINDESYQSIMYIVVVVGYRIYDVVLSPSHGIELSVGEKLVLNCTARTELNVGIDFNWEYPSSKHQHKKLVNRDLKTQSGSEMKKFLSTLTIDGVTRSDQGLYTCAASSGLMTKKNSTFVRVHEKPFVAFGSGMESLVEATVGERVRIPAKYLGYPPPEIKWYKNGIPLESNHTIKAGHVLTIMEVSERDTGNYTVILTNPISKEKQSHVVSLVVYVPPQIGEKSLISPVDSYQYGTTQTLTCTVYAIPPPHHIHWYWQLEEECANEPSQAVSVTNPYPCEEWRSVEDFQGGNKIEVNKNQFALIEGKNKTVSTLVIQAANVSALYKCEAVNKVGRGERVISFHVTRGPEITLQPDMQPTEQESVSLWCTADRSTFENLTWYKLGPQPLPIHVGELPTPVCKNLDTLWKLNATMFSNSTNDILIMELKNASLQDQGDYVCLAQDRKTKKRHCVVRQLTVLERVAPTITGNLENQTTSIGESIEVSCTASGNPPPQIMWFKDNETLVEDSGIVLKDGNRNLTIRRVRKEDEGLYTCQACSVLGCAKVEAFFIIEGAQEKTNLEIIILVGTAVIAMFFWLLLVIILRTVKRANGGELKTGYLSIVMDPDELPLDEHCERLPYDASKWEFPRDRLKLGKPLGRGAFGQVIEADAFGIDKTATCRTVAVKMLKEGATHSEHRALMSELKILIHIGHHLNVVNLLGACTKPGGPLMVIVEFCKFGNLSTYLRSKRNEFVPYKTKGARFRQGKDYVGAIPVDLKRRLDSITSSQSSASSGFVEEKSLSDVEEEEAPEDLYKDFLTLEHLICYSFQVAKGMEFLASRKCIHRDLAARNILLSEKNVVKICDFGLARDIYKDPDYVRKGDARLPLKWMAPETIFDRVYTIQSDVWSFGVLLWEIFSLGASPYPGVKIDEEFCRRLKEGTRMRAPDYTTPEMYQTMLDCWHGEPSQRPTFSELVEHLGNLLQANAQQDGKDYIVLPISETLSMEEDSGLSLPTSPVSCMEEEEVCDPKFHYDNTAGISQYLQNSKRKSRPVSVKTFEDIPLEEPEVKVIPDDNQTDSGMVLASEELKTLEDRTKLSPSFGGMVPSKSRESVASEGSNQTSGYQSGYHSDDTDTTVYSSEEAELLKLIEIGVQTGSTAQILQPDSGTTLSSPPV
T7 sequence (Q02763 23-1124, species assumed): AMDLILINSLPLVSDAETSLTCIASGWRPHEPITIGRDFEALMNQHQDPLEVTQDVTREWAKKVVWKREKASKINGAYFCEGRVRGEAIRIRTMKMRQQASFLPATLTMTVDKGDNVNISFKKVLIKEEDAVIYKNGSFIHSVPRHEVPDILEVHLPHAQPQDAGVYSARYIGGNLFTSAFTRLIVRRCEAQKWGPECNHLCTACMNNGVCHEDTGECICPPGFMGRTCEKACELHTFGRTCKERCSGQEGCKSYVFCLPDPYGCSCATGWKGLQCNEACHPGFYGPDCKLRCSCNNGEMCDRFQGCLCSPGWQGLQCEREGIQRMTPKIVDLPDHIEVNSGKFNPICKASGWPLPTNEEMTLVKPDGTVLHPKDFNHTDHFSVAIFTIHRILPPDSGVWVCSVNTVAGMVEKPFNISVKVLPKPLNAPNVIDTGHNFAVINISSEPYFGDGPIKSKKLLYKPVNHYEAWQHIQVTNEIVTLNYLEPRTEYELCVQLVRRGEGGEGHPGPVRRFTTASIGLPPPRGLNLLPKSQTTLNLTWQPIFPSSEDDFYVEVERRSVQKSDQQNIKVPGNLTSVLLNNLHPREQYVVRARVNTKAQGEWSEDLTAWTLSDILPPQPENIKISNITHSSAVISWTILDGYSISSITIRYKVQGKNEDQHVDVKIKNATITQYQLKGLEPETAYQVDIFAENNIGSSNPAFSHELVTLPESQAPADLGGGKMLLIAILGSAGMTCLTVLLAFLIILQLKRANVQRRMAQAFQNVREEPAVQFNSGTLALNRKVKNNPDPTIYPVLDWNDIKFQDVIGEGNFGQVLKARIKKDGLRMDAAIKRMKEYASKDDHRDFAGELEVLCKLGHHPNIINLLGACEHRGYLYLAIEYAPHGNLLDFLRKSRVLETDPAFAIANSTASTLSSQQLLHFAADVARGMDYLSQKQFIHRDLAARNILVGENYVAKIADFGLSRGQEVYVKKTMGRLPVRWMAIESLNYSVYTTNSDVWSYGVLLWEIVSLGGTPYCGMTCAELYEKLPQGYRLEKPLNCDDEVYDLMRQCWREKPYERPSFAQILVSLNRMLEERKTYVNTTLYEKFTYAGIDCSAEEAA
T2 sequence (P07948 whole entry, species assumed, the tested form may be a part): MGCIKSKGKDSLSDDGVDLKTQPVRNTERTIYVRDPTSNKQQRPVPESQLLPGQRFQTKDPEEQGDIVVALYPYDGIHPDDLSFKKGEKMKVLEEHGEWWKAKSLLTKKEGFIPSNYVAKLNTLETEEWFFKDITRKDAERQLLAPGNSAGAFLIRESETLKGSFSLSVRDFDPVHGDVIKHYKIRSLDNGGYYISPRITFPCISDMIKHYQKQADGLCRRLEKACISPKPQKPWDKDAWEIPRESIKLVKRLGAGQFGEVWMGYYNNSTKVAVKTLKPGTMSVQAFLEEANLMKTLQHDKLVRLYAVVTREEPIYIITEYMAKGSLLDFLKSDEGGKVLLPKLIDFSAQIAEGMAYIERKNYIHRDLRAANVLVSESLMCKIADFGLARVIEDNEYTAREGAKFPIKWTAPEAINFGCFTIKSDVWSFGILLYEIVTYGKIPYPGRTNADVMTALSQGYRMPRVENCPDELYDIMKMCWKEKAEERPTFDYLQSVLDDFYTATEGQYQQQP
T1 sequence (P06239 whole entry, species assumed, the tested form may be a part): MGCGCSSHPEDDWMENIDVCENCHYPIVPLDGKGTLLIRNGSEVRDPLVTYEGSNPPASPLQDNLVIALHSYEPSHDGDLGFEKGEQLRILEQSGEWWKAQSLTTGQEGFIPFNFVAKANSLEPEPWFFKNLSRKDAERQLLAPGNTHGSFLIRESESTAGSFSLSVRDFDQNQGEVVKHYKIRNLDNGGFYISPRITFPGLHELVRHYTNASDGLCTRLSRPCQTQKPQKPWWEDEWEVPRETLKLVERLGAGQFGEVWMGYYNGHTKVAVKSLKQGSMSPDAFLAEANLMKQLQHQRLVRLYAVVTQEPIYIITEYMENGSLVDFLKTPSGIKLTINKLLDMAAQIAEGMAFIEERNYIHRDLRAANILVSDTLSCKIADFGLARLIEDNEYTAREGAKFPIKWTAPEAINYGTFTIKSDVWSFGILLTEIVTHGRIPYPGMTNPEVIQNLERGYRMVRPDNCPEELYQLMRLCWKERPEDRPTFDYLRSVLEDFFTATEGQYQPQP
T3 sequence (P12931 whole entry, species assumed, the tested form may be a part): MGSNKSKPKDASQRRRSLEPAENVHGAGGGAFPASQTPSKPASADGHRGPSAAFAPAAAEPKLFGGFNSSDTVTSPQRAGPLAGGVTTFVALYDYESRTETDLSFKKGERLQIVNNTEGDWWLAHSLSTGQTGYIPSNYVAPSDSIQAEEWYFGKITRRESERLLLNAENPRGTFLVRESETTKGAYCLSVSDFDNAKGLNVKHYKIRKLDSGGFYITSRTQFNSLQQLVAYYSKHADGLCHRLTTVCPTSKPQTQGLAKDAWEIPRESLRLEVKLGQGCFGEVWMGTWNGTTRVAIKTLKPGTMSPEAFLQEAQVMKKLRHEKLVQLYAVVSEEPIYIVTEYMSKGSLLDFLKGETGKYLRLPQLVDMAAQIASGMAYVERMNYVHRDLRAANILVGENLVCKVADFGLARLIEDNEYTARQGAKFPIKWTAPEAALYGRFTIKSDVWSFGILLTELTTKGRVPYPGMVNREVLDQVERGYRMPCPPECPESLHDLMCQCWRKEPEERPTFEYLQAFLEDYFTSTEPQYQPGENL

SMILES	pIC50 (Lck)	pIC50 (Lyn)	pIC50 (Src)	pIC50 (Itk)	pIC50 (EGFR)	pIC50 (Kdr)	pIC50 (Tek)	pIC50 (c-Met)	pIC50 (IGFR-1)	pIC50 (PDGFRB)	pIC50 (ErbB4)	pIC50 (Ret-1)	pIC50 (FGFR1)
Cc1cccc(Nc2ncnc(Nc3ccc4[nH]ncc4c3)n2)c1 [Compound 120]	4.85 to 4.96	> 5.90	5.12 to 5.90	4.96 to 5.12	> 5.90	5.12 to 5.90	4.96 to 5.12	4.96 to 5.12	> 5.90	> 5.90	5.12 to 5.90	> 5.90	5.12 to 5.90
NC(=O)c1cccc(Nc2ncnc(Nc3cc(-c4ccco4)n[nH]3)n2)c1 [Compound 342]	5.18 to 5.96	5.18 to 5.96	< 4.91	5.18 to 5.96	> 5.96	> 5.96	< 4.91	5.18 to 5.96	5.18 to 5.96	5.18 to 5.96	5.18 to 5.96	> 5.96	> 5.96
COc1cc(Nc2ncnc(N(c3ccccc3)c3nc4ccccc4[nH]3)n2)cc(OC)c1OC [Compound 335]	5.29 to 6.07	5.29 to 6.07	5.13 to 5.29	< 5.02	> 6.07	> 6.07	< 5.02	< 5.02	< 5.02	5.02 to 5.13	< 5.02	> 6.07	5.02 to 5.13
COc1ccc(Sc2ncnc(Nc3cc(OC)c(OC)c(OC)c3)n2)cc1 [Compound 175]	5.22 to 6.00	5.06 to 5.22	5.22 to 6.00	< 4.95	< 4.95	> 6.00	5.22 to 6.00	5.22 to 6.00	5.22 to 6.00	> 6.00	< 4.95	5.06 to 5.22	< 4.95
COc1ccc(Nc2ncnc(-n3c(N)nc4ccccc43)n2)cc1OC [Compound 285]	5.18 to 5.96	< 4.91	< 4.91	< 4.91	< 4.91	> 5.96	< 4.91	< 4.91	> 5.96	< 4.91	< 4.91	5.02 to 5.18	4.91 to 5.02
COCCOc1ccc(Nc2ncnc(Nc3ccc(C)c(O)c3)n2)cc1OC [Compound 123]	5.22 to 6.00	> 6.00	> 6.00	5.06 to 5.22	> 6.00	> 6.00	4.95 to 5.06	< 4.95	5.22 to 6.00	> 6.00	5.22 to 6.00	> 6.00	5.22 to 6.00

Next, values leading:

pIC50 (Lck)	pIC50 (Lyn)	pIC50 (Src)	pIC50 (Itk)	pIC50 (EGFR)	pIC50 (Kdr)	pIC50 (Tek)	pIC50 (c-Met)	pIC50 (IGFR-1)	pIC50 (PDGFRB)	pIC50 (ErbB4)	pIC50 (Ret-1)	pIC50 (FGFR1)	SMILES
< 5.01	< 5.01	< 5.01	< 5.01	5.28 to 6.06	< 5.01	< 5.01	< 5.01	< 5.01	< 5.01	< 5.01	< 5.01	< 5.01	COc1cc(Nc2ncnc(N(CC(=O)O)c3ccc4c(c3)OCO4)n2)cc(OC)c1OC [Compound 319]
5.03 to 5.20	< 4.92	< 4.92	< 4.92	< 4.92	> 5.97	< 4.92	4.92 to 5.03	5.20 to 5.97	> 5.97	< 4.92	< 4.92	< 4.92	COc1cc(Nc2ncnc(-n3ccc4ccccc43)n2)cc(OC)c1OC [Compound 185]
< 4.96	< 4.96	< 4.96	< 4.96	< 4.96	5.23 to 6.01	< 4.96	< 4.96	< 4.96	> 6.01	< 4.96	< 4.96	< 4.96	COc1cc(Nc2ncnc(-n3ccc4cc(Cl)ccc43)n2)cc(OC)c1OC [Compound 198]
5.18 to 5.96	> 5.96	> 5.96	< 4.91	> 5.96	> 5.96	< 4.91	4.91 to 5.02	5.18 to 5.96	> 5.96	5.18 to 5.96	5.18 to 5.96	5.02 to 5.18	COc1cc(Nc2ncnc(Nc3ccc(C)cc3)n2)cc(OC)c1OC [Compound 930]
5.23 to 6.01	> 6.01	5.23 to 6.01	< 4.96	> 6.01	> 6.01	< 4.96	5.06 to 5.23	> 6.01	> 6.01	< 4.96	> 6.01	5.23 to 6.01	COc1cc(Nc2ncnc(Nc3ccc(Cl)cc3F)n2)cc(OC)c1OC [Compound 306]
5.23 to 6.01	5.07 to 5.23	< 4.96	< 4.96	4.96 to 5.07	> 6.01	< 4.96	5.07 to 5.23	> 6.01	< 4.96	< 4.96	5.07 to 5.23	5.07 to 5.23	COc1cc(Nc2ncnc(-n3ccc4ccc(Cl)cc43)n2)cc(OC)c1OC [Compound 237]
